Test results as given in patent US8546421B1, “Oncogenic-RAS-signal dependent lethal compounds” (The Trustees of Columbia University in the City of New York, priority 2007, dated 2013).
In brackets after ≈: the same amount, converted by molar mass. Entries after “also recorded” stand apart in the source; their conditions may differ. Read-outs that look alike come from different tables or passages of the source.

What was measured:
SW-620 = assay: NCI60 anti-cancer screening; conditions: for GI50 / CC50: Homo sapiens; for GI50 / GI 100%: SW-620; for CC50: SW-620, read-out: LC 50%; for GI 100%: Colon Cancer
PaCa-2 = assay: Alamar Blue assay, additional cell lines; format: cell-based, human; conditions: Pancreatic Cancer; for GI50: Homo sapiens
From the text: (§1) The results of this additional testing are summarized in Tables 7-10 (no additional cell lines were identified as sensitive for Compound 3). […] The tumor type, cell line, maximum percentage inhibition, the concentration of compound required to inhibit cell growth by 50%, and RAS mutation (if any) are also summarized.

Calu-1 = assay: Alamar Blue assay, additional cell lines; format: cell-based, human; conditions: for Maximum Inhibition % / GI50: Calu-1, Non-small cell lung carcinoma, Alamar Blue
From the text: as §1

SK-MEL-2 = assay: NCI60 anti-cancer screening; conditions: for GI50 / CC50: Homo sapiens; for GI50 / GI 100%: SK-MEL-2; for CC50: SK-MEL-2, read-out: LC 50%; for GI 100%: Melanoma
SN12C = assay: NCI60 anti-cancer screening; conditions: for GI50 / CC50: Homo sapiens; for CC50: read-out: LC 50%; for GI 100%: Renal Cancer
HOP-92 = assay: NCI60 anti-cancer screening; conditions: for GI 100% / GI50: HOP-92; for GI 100%: Non-small cell lung carcinoma; for GI50 / CC50: Homo sapiens; for CC50: HOP-92, read-out: LC 50%
SF-268 = assay: NCI60 anti-cancer screening; conditions: for GI50 / CC50: Homo sapiens; for GI50 / GI 100%: SF-268; for CC50: SF-268, read-out: LC 50%; for GI 100%: CNS Cancer
OVCAR-3 = assay: cells; conditions: Homo sapiens; for GI50: OVCAR-3; for CC50: OVCAR-3, read-out: LC 50%
OVCAR-4 = assay: NCI60 anti-cancer screening; conditions: for GI50 / CC50: Homo sapiens; for GI50 / GI 100%: OVCAR-4; for CC50: OVCAR-4, read-out: LC 50%; for GI 100%: Ovarian Cancer
[1] = tested on: BJ-TERT/LT/ST/RAS^V12 cells; assay: Alamar blue growth inhibition in dilution series; format: cell-based, human
SR = assay: NCI60 anti-cancer screening; conditions: for GI50 / CC50: Homo sapiens; for CC50: read-out: LC 50%; for GI 100%: Leukemia
MCF-7 = assay: NCI60 anti-cancer screening; conditions: for GI50 / CC50: Homo sapiens; for GI50: MCF7; for CC50: MCF7, read-out: LC 50%; for GI 100%: MCF-7, Breast Cancer
COLO 205 = assay: NCI60 anti-cancer screening; conditions: for GI 100% / GI50: COLO 205; for GI 100%: Colon Cancer; for GI50 / CC50: Homo sapiens; for CC50: COLO 205, read-out: LC 50%
MOLT-4 = assay: NCI60 anti-cancer screening; conditions: for GI50 / CC50: Homo sapiens; for GI50 / GI 100%: MOLT-4; for CC50: MOLT-4, read-out: LC 50%; for GI 100%: Leukemia
[2] = tested on: BJ-TERT/LT/ST/RAS^V12 cells; assay: Counter screening with iron chelators; format: cell-based, human; conditions: DFOM and three additional iron-binding compounds; 24 hours
Procedure: Cells were treated with iron chelators by transferring 4 μL of 1 mM deferoxamine mesylate (Calbiochem, cat.#252750), 500 μM compound 1a (Chembridge, cat.#5175092), 1 mM compound 2 (Ryan Scientific, cat.#LT01784723), or 100 μM compound 311 (Chembridge, cat.#5135701) in growth media to the assay plate. Then, 4 μL was transferred from the ‘10× lethal plate’ (described in ‘counter screening with biologically active compounds’) to the assay plate in order to induce cell death. Assay plates were incubated for 24 hours and alamar blue was added to the plates at a final concentration of 10%.

ACHN = assay: NCI60 anti-cancer screening; conditions: for GI50 / CC50: Homo sapiens; for CC50: read-out: LC 50%; for GI 100%: Renal Cancer
[3] = tested on: BJ-TERT/LT/ST/RAS^V12 cells; assay: Counter screening with biologically active compounds; format: cell-based, human; conditions: for biologically active compounds that suppress compound-induced cell death: 36 bioactive compounds of Table 1, 24 hours, alamar blue
Procedure: Biologically active compounds listed in Table 1 were dissolved in BJ medium at 10× final concentration and aliquoted into eppendorf tubes. 100 μL of each 10× solution was transferred to column 1 to column 12 or column 13 to column 24 of a single row in a 384-well daughter plate. This plate was designated as ‘10× biologically active plate’. In order to prepare lethal compound solution, Erastin and compounds 3, 6, 27, and 36 were dissolved in BJ medium at a concentration of 100 μg/mL, 400 μg/mL, 400 μg/mL, 100 μg/mL, and 200 μg/mL, respectively. Empty daughter plates were filled with 50 μL BJ media except for columns 5 and 13 where 100 μL of each lethal solution was transferred. After lethal solution transfer, 2-fold dilution series across columns 5 to 12 and columns 13 to 20 was made by transferring 50 μL compound solution to the next column successively (8-point dilution series), with mixing. These five plates were each designated ‘10× lethal plate’. Five assay plates were prepared by seeding 4,000 BJ-TERT/LT/ST/RAS^V12 cells per well in 32 μL of growth media in black, clear bottom 384-well plates. Cells in assay plates were first treated with biologically active compounds by transferring 4 μL from the 10× inhibitor plate. Cells were then treated with each lethal compound in a 2-fold dilution series by transferring 4 μL solution from each 10× lethal plate. […] Percent growth inhibition (% GI) was calculated by the following formula using fluorescence intensity values: % GI=100*(1−(X−N)/([…])) wherein X is the fluorescent intensity value measured at 590 nm for cells treated with biologically active compound and lethal compound; N is the fluorescent intensity value measured at 590 nm for a control containing no cells (i.e. biologically active compound in growth media); and P is the fluorescent intensity value measured at 590 nm for a control containing no lethal compound (i.e., cells treated with biologically active compound). Counter Screening with Iron Chelators

DU-145 = assay: NCI60 anti-cancer screening; conditions: for GI 100% / GI50: DU-145; for GI 100%: Prostate Cancer; for GI50 / CC50: Homo sapiens; for CC50: DU-145, read-out: LC 50%
K-562 = assay: NCI60 anti-cancer screening

COC(=O)c1ccc(C2c3[nH]c4ccccc4c3CC(C(=O)OC)N2C(=O)CCl)cc1 (centres unmarked) [Compound 27]
GI50 (SW-620): 681 nM | CC50 (SW-620): 5250 nM | GI 100% (SW-620): 2.09 µM | GI50 (PaCa-2): 125 nM | Maximum Inhibition % (PaCa-2): 100% | Maximum Inhibition % (Calu-1): 100% | IC90 (in words) (Calu-1; Calu-1 cells, alamar blue): single-digit nanomolar range | GI50 (Calu-1; Homo sapiens): 1 nM | IC50 (Calu-1; Homo sapiens, Calu-1 cells, treated for 24 hour, alamar blue): 0.02 µg/mL (≈ 0.0454 µM) | GI50 (SK-MEL-2): 1740 nM | CC50 (SK-MEL-2): 9820 nM | GI 100% (SK-MEL-2): 4.13 µM | GI50 (SN12C): 1250 nM | CC50 (SN12C): 6120 nM | GI 100% (SN12C): 2.77 µM | GI 100% (HOP-92): 1.07 µM | GI50 (HOP-92): 99.1 nM | CC50 (HOP-92): 5850 nM | GI50 (SF-268): 69.2 nM | CC50 (SF-268): 577 nM | GI 100% (SF-268): 0.218 µM | GI50 (OVCAR-3): 353 nM | CC50 (OVCAR-3): 6590 nM | GI50 (OVCAR-4): 4300 nM | CC50 (OVCAR-4): > 10000 nM | GI 100% (OVCAR-4): >10 µM | concentration at which growth was inhibited (as low as) [1]: ≥ 0.01 µg/mL | concentration at which growth was inhibited (as low as) ([1]; 48 hours): ≥ 0.01 µg/mL | GI50 (SR): 400 nM | CC50 (SR): 6580 nM | GI 100% (SR): 1.6 µM | GI50 (MCF-7): 782 nM | CC50 (MCF-7): > 10000 nM | GI 100% (MCF-7): 3.98 µM | GI 100% (COLO 205): 3.44 µM | GI50 (COLO 205): 1670 nM | CC50 (COLO 205): 7070 nM | GI50 (MOLT-4): 1020 nM | CC50 (MOLT-4): 7390 nM | GI 100% (MOLT-4): 2.74 µM | effect of iron chelators on compound activity / induced cell death [2]: suppressed by all of these iron chelators moderately; also recorded: significantly inhibited | GI50 (ACHN): 187 nM | CC50 (ACHN): 3250 nM | GI 100% (ACHN): 1.05 µM | effect of pan-caspase inhibitors (z-VAD-fmk, Boc-D-fmk) on compound-induced cell death [3]: not blocked | biologically active compounds that suppress compound-induced cell death [3]: GSH, L-Mim, TLCK, DFOM, SU6656, Ro31-8220, and U0126 were effective | GI 100% (DU-145): 1.4 µM | GI50 (DU-145): 308 nM | CC50 (DU-145): 4010 nM

C=C1CCC2C(C)(C)CCC[C@]2(C)C1CC/C(C)=C\CC/C(C)=N/NC(N)=S (some centres unmarked) [Compound 36]
GI50 (SW-620): 184 nM | CC50 (SW-620): 2540 nM | GI 100% (SW-620): 0.569 µM | GI50 (PaCa-2): 1500 nM | Maximum Inhibition % (PaCa-2): 100% | Maximum Inhibition % (Calu-1): 100% | GI50 (Calu-1; Homo sapiens): 300 nM | GI50 (SK-MEL-2): 297 nM | CC50 (SK-MEL-2): 4930 nM | GI 100% (SK-MEL-2): 1.01 µM | GI50 (SN12C): 351 nM | CC50 (SN12C): 3670 nM | GI 100% (SN12C): 1.35 µM | GI 100% (HOP-92): 1.52 µM | GI50 (HOP-92): 479 nM | CC50 (HOP-92): 3960 nM | GI50 (SF-268): 1090 nM | CC50 (SF-268): 5740 nM | GI 100% (SF-268): 2.5 µM | GI50 (OVCAR-3): 204 nM | CC50 (OVCAR-3): 4200 nM | GI50 (OVCAR-4): 147 nM | CC50 (OVCAR-4): 1310 nM | GI 100% (OVCAR-4): 0.405 µM | IC90 ([1]; Homo sapiens, alamar blue): 1 µg/mL (≈ 2.48 µM) | GI50 (SR): 1320 nM | CC50 (SR): 8780 nM | GI 100% (SR): 3.4 µM | GI50 (K-562; Homo sapiens, K562): 267 nM | CC50 (K-562; Homo sapiens, K562, read-out: LC 50%): 3510 nM | GI 100% (K-562; K-562, Leukemia): 1.08 µM | GI50 (MCF-7): 265 nM | CC50 (MCF-7): 3830 nM | GI 100% (MCF-7): 1.34 µM | GI 100% (COLO 205): 0.451 µM | GI50 (COLO 205): 184 nM | CC50 (COLO 205): 1460 nM | GI50 (MOLT-4): 77.3 nM | CC50 (MOLT-4): 7390 nM | GI 100% (MOLT-4): 1.1 µM | effect of iron chelators on compound activity / induced cell death [2]: significantly inhibited | GI50 (ACHN): 366 nM | CC50 (ACHN): 3780 nM | GI 100% (ACHN): 1.43 µM | biologically active compounds that suppress compound-induced cell death [3]: iron chelators (L-Mim and DFOM) and a protein synthesis inhibitor (cycloheximide) were effective | effect of MEK1/2 inhibitor (U0126) on compound-induced cell death ([3]; U0126 10 uM): inability of MEK1/2 inhibitors to suppress | GI 100% (DU-145): 2.35 µM | GI50 (DU-145): 1140 nM | CC50 (DU-145): 4840 nM
